Four compounds from ChEMBL document CHEMBL1158084, “Cytotoxic diterpenoids from the soft coral Sarcophyton crassocaule” (J Nat Prod, 2006) can be followed below.

For orientation: IC50 means the concentration that inhibits the measured activity by half. Lower therefore signals greater potency.

In brackets after ≈: the same amount, converted by molar mass.

For the test, the system named is KB. Kind of test: Cytotoxicity against human KB cells. It counts as functional, cell-based.
`COC(=O)/C1=C\[C@@H]2O[C@@]2(C(C)C)CC/C(C(=O)OC)=C/CC[C@]2(C)O[C@H]2CC1` displayed an IC50 of 5 µg/mL (≈ 12.7 µM).

`COC(=O)/C1=C\C=C(\C(C)C)CCC2=CCC[C@](C)(OC2=O)[C@@H](OC(C)=O)CC1` [EMBLIDE]: the half-maximal inhibitory concentration (IC50) is 5 µg/mL (≈ 12.4 µM).

Compound `COC(=O)/C1=C/C=C(/C(C)C)CCC2=CCC[C@](C)(OC2=O)[C@H](OC(C)=O)CC1` [SARCRASSIN D] registered an IC50 of 4 µg/mL (≈ 9.89 µM).

In turn, `COC(=O)/C1=C/C=C(/C(C)C)CCC2=CCC[C@](C)(OC2=O)C(=O)CC1` [SARCRASSIN E] registered an IC50 of 13 µg/mL (≈ 36.1 µM).
